This passage reports IC50 and Ki results from patent US20200339548A1, “PYRIMIDINE DERIVATIVES AND THEIR USE FOR THE TREATMENT OF CANCER” (Adorx Therapeutics Limited, priority 2017, published 2020).

One test concerns Human PBMCs. In words: CD3/CD28 stimulated IL-2 release NECA reversal assay. To be noted: Homo sapiens, PBMC, read-out: IL-2 release NECA reversal IC50 (nM), 1 uM NECA, 24 hours. The format is cell-based. The protocol:
Blood is drawn from healthy volunteers using sodium citrate as the anticoagulant (0.3% final concentration). […] 50 μl diluted compound mix is added to the cells, to obtain final concentrations of 1 ug/ml CD28 antibody, 1 uM NECA and 0.003-10 μM adenosine receptor antagonist. Assay plates are incubated for 24 hours at 37° C. in a humidified incubator.

The target in the next test is T1, Adenosine A2a receptor (Homo sapiens, UniProt P29274).
T1 construct: expressed in transfected cells; host or cells: CHO cell membranes
In words: Adenosine receptor TR-FRET binding assay, A2a. To be noted: displacement of 100 nM CA200645, CHO cell membranes. The procedure, abridged: (§1)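 Competition TR-FRET binding in CHO cell membranes expressing terbium-labelled human receptors, displacing fluorescent XAC (CA200645; 30 nM for A2b, 100 nM for A1, A2a, A3); 2 h at room temperature with saponin buffer, 1% DMSO. 665/620 nm ratio; non-specific with 10 μM XAC; Ki by Cheng–Prusoff from IC50.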

The target of another test is T2, Adenosine A3 receptor (Homo sapiens, UniProt P0DMS8).
T2 construct: expressed in transfected cells; host or cells: CHO cell membranes
T2 sequence (P0DMS8 1-318): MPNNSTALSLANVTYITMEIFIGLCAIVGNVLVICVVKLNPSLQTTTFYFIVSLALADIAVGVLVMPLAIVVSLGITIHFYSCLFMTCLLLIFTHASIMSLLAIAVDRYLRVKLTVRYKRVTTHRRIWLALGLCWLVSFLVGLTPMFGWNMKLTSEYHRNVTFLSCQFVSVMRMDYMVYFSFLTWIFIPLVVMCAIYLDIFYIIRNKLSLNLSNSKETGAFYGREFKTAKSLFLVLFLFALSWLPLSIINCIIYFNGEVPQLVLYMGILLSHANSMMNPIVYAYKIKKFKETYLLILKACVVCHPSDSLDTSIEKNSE
In words: Adenosine receptor TR-FRET binding assay, A3. The procedure, abridged:
as §1

A further test addresses T3, Adenosine A1 receptor (Homo sapiens, UniProt P30542).
T3 construct: expressed in transfected cells; host or cells: CHO cell membranes
T3 sequence (P30542 1-326): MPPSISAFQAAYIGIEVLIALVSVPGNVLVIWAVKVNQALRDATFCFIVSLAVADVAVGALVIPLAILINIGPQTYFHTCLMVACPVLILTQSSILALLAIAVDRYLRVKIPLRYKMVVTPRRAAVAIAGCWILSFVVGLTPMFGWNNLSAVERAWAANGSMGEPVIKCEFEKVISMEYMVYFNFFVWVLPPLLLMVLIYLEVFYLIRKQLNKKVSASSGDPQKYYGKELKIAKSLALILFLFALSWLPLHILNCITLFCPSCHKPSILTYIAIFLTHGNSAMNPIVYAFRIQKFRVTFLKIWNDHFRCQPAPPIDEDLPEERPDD
In words: Adenosine receptor TR-FRET binding assay, A1. To be noted: Table 9, further testing; displacement of 100 nM CA200645, CHO cell membranes. Put shortly: as §1

The target in the next test is T4, Adenosine A2b receptor (Homo sapiens, UniProt P29275).
T4 construct: expressed in transfected cells; host or cells: CHO cell membranes
T4 sequence (P29275 1-332): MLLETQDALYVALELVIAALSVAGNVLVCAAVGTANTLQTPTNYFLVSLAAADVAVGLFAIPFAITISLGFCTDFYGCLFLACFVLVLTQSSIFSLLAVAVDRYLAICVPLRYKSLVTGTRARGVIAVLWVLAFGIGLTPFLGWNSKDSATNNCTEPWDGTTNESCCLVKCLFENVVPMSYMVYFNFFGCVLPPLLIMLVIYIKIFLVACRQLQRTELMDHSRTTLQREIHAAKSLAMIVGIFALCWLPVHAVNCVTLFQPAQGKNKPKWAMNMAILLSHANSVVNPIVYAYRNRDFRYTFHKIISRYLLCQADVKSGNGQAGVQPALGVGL
The experiment in a line: Adenosine receptor TR-FRET binding assay, A2b. To be noted: Table 9, further testing; displacement of 30 nM CA200645, CHO cell membranes. The procedure, abridged:
as §1

Where [1] appears, read: Table 9, further testing, displacement of 100 nM CA200645, CHO cell membranes, read-out: A3 Ki.

Read-outs that look alike come from different tables or passages of the source.

T1 sequence (P29274 whole entry): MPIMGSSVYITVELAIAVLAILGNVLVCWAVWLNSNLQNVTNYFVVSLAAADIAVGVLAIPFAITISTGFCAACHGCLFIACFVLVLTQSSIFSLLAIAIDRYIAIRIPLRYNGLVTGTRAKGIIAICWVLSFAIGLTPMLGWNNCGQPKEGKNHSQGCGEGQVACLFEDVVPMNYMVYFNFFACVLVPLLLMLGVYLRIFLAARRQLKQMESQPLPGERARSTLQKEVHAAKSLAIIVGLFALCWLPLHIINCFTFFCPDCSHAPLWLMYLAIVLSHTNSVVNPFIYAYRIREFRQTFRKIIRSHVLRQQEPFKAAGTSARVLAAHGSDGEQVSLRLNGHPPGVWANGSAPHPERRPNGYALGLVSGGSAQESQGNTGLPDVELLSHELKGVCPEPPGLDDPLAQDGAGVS

Turning to `Cc1cccnc1CNC(=O)c1nnc(-c2ccco2)nc1N` [Example 2, 5-Amino-3-(2-furyl)-N-[(3-methyl-2-pyridyl)methyl]-1,2,4-triazine-6-carboxamide], the IC50 in the test on Human PBMCs was determined as 408 nM. The inhibitory constant (Ki) at Adenosine A2a receptor (Table 8, Cheng and Prusoff) came to 0.0009 µM; on Adenosine A2a receptor (Table 9, further testing), 0.00079 µM; on Adenosine A3 receptor (setting [1]), 0.05 µM; on Adenosine A1 receptor, 0.318 µM; on Adenosine A2b receptor, 0.095 µM.
For `Cc1cccnc1CNC(=O)c1cnc(-c2cccc(F)c2)nc1N` [Example 4.3, 4-Amino-2-(3-fluorophenyl)-N-[(3-methyl-2-pyridyl)methyl]pyrimidine-5-carboxamide], the IC50 in the test on Human PBMCs was 705 nM. Besides, the Ki on Adenosine A2a receptor (Table 8, Cheng and Prusoff) was determined as 0.012 µM; on Adenosine A2a receptor (Table 9, further testing) it was 0.012 µM; on Adenosine A3 receptor (setting [1]), 0.054 µM; on Adenosine A1 receptor, 0.049 µM; at Adenosine A2b receptor, 0.689 µM.
As for `Nc1nc(-c2ccco2)ncc1C(=O)NCc1cccc(Cl)c1` [Example 5.12, 4-Amino-N-[(3-chlorophenyl)methyl]-2-(2-furyl)pyrimidine-5-carboxamide], in the test with Human PBMCs, the IC50 amounted to 345 nM. Besides, the Ki was 0.0041 µM at Adenosine A2a receptor (Table 8, Cheng and Prusoff); 0.0039 µM at Adenosine A2a receptor (Table 9, further testing); 1.16 µM at Adenosine A3 receptor (setting [1]); 0.962 µM at Adenosine A1 receptor; 1.57 µM at Adenosine A2b receptor.
Consider `Nc1nc(-c2ccco2)ncc1C(=O)NCc1c(Cl)cccc1Cl` [Example 5.16, 4-Amino-N-[(2,6-dichlorophenyl)methyl]-2-(2-furyl)pyrimidine-5-carboxamide], for which the IC50 with Human PBMCs came to 102 nM. The Ki was determined as 0.00093 µM on Adenosine A2a receptor (Table 8, Cheng and Prusoff); 0.00064 µM at Adenosine A2a receptor (Table 9, further testing); 1.35 µM at Adenosine A1 receptor; 0.297 µM at Adenosine A2b receptor.
Consider `Nc1nc(-c2ccco2)ncc1C(=O)NCc1ccccc1F` [Example 5.18, 4-Amino-N-[(2-fluorophenyl)methyl]-2-(2-furyl)pyrimidine-5-carboxamide], for which, in the test on Human PBMCs, the IC50 came out at 230 nM. Further, the inhibition constant (Ki) at Adenosine A2a receptor (Table 8, Cheng and Prusoff) is 0.0038 µM; at Adenosine A2a receptor (Table 9, further testing), 0.0033 µM; on Adenosine A3 receptor (setting [1]) it was 1.94 µM; on Adenosine A1 receptor, 1.76 µM; at Adenosine A2b receptor, 0.215 µM.
Regarding `COc1ccccc1CNC(=O)c1cnc(-c2ccco2)nc1N` [Example 5.20, 4-Amino-2-(2-furyl)-N-[(2-methoxyphenyl)methyl]pyrimidine-5-carboxamide], the IC50 with Human PBMCs was found to be 122 nM. Besides, the Ki at Adenosine A2a receptor (Table 8, Cheng and Prusoff) was found to be 0.0011 µM; at Adenosine A2a receptor (Table 9, further testing), 0.00095 µM; on Adenosine A3 receptor (setting [1]), 0.757 µM; on Adenosine A1 receptor, 0.426 µM; at Adenosine A2b receptor, 1.19 µM.
Turning to `Nc1nc(-c2ccco2)ncc1C(=O)NCc1ncccc1Cl` [Example 5.21, 4-Amino-N-[(3-chloro-2-pyridyl)methyl]-2-(2-furyl)pyrimidine-5-carboxamide], the IC50 with Human PBMCs came to 123 nM. For the same compound, the Ki stood at 0.0015 µM at Adenosine A2a receptor (Table 8, Cheng and Prusoff); 0.0015 µM at Adenosine A2a receptor (Table 9, further testing); 1.19 µM on Adenosine A3 receptor; 1.85 µM at Adenosine A1 receptor; 1.16 µM at Adenosine A2b receptor.
Take `Nc1nc(-c2ccco2)ncc1C(=O)NC1Cc2ccccc2C1` [Example 5.24, 4-Amino-2-(2-furyl)-N-indan-2-yl-pyrimidine-5-carboxamide]: in the test with Human PBMCs, the IC50 worked out at 364 nM. For the same compound, the Ki came to 0.0024 µM at Adenosine A2a receptor (Table 8, Cheng and Prusoff); 0.0026 µM at Adenosine A2a receptor (Table 9, further testing); 1.27 µM at Adenosine A1 receptor; 1.6 µM on Adenosine A2b receptor.
Take `Nc1nc(-c2ccco2)ncc1C(=O)NCc1cccc2cccnc12` [Example 5.25, 4-Amino-2-(2-furyl)-N-(8-quinolylmethyl) pyrimidine-5-carboxamide]: the IC50 with Human PBMCs came to 15 nM. Moreover, the Ki turned out to be 0.0012 µM at Adenosine A2a receptor (Table 8, Cheng and Prusoff); 0.00083 µM on Adenosine A2a receptor (Table 9, further testing); 0.506 µM on Adenosine A3 receptor (setting [1]); 0.706 µM at Adenosine A1 receptor; 1.47 µM at Adenosine A2b receptor.
On to `Cc1cccnc1CNC(=O)c1nnc(-c2cccc(F)c2)nc1N` [Example 7, 5-Amino-3-(3-fluorophenyl)-N-[(3-methyl-2-pyridyl)methyl]-1,2,4-triazine-6-carboxamide], for which the IC50 in the test on Human PBMCs came out at 830 nM. In addition, the Ki was 0.011 µM at Adenosine A2a receptor (Table 8, Cheng and Prusoff); 0.012 µM on Adenosine A2a receptor (Table 9, further testing); 0.013 µM on Adenosine A3 receptor (setting [1]); 0.042 µM at Adenosine A1 receptor; 0.383 µM at Adenosine A2b receptor.
Regarding `Nc1nc(-c2cccc(F)c2)ncc1C(=O)NCc1ccccc1O` [Example 10.1, 4-Amino-2-(3-fluorophenyl)-N-[(2-hydroxyphenyl)methyl]pyrimidine-5-carboxamide], in the test on Human PBMCs, the IC50 turned out to be 216 nM. The Ki was 0.013 µM on Adenosine A2a receptor (Table 8, Cheng and Prusoff); 0.013 µM at Adenosine A2a receptor (Table 9, further testing); 0.421 µM on Adenosine A3 receptor (setting [1]); 0.093 µM on Adenosine A1 receptor; 0.054 µM on Adenosine A2b receptor.
In the case of `Nc1nc(-c2cccc(F)c2)ncc1C(=O)NCc1c(Cl)cccc1Cl` [Example 10.6, 4-Amino-N-[(2,6-dichlorophenyl)methyl]-2-(3-fluorophenyl)pyrimidine-5-carboxamide], the IC50 with Human PBMCs was 685 nM. For the same compound, the inhibitory constant (Ki) at Adenosine A2a receptor (Table 8, Cheng and Prusoff) was found to be 0.032 µM; at Adenosine A2a receptor (Table 9, further testing), 0.032 µM; on Adenosine A3 receptor (setting [1]) it was 0.16 µM; on Adenosine A1 receptor it was 0.231 µM; at Adenosine A2b receptor it was 1.31 µM.
For the compound `COc1ccccc1CNC(=O)c1cnc(-c2cccc(F)c2)nc1N` [Example 10.8, 4-Amino-2-(3-fluorophenyl)-N-[(2-methoxyphenyl)methyl]pyrimidine-5-carboxamide], the IC50 in the test with Human PBMCs was found to be 2000 nM. Further, the inhibition constant (Ki) on Adenosine A2a receptor (Table 8, Cheng and Prusoff) was found to be 0.027 µM; on Adenosine A2a receptor (Table 9, further testing), 0.027 µM; on Adenosine A3 receptor (setting [1]) it was 0.23 µM; at Adenosine A1 receptor, 0.143 µM; at Adenosine A2b receptor, 1.75 µM.
Take `Nc1nc(-c2cccc(F)c2)ncc1C(=O)NCc1cccc2cccnc12` [Example 10.13, 4-Amino-2-(3-fluorophenyl)-N-(8-quinolylmethyl)pyrimidine-5-carboxamide]: in the test with Human PBMCs, the IC50 came out at 926 nM. Moreover, the Ki at Adenosine A2a receptor (Table 8, Cheng and Prusoff) amounted to 0.0047 µM; on Adenosine A2a receptor (Table 9, further testing) it was 0.0033 µM; at Adenosine A3 receptor (setting [1]) it was 0.105 µM; at Adenosine A1 receptor, 0.038 µM; at Adenosine A2b receptor, 0.415 µM.
Consider `CCn1ccnc1CNC(=O)c1cnc(-c2cccc(F)c2)nc1N` [Example 10.14, 4-Amino-N-[(1-ethylimidazol-2-yl)methyl]-2-(3-fluorophenyl)pyrimidine-5-carboxamide], for which, in the test on Human PBMCs, the IC50 came out at 1240 nM. Also, the inhibition constant (Ki) on Adenosine A2a receptor (Table 8, Cheng and Prusoff) was found to be 0.042 µM; at Adenosine A2a receptor (Table 9, further testing), 0.042 µM; on Adenosine A3 receptor (setting [1]), 0.609 µM; on Adenosine A1 receptor, 0.159 µM; at Adenosine A2b receptor it was 1.14 µM.
For the compound `Nc1nc(-c2ccco2)ncc1C(=O)NCc1ccccc1O` [Example 11.2, 4-amino-2-(2-furyl)-N-[(2-hydroxyphenyl)methyl]pyrimidine-5-carboxamide], in the test on Human PBMCs, the IC50 is 71 nM. For the same compound, the Ki amounted to 0.0012 µM at Adenosine A2a receptor (Table 8, Cheng and Prusoff); 0.00071 µM on Adenosine A2a receptor (Table 9, further testing); 0.787 µM on Adenosine A1 receptor; 0.05 µM at Adenosine A2b receptor.
As to `Cn1ncnc1CNC(=O)c1c(N)nc(-c2cccc(C#N)c2)nc1OCCF` [Example 24.7, 4-Amino-2-(3-cyanophenyl)-6-(2-fluoroethoxy)-N-[(2-methyl-1,2,4-triazol-3-yl)methyl]pyrimidine-5-carboxamide], the IC50 with Human PBMCs was 212 nM. Moreover, the Ki turned out to be 0.0081 µM at Adenosine A2a receptor (Table 9, further testing); 1.61 µM on Adenosine A3 receptor (setting [1]); 0.145 µM at Adenosine A1 receptor.
